For test [1], the system named is Hepatitis C virus. The experiment in a line: Antiviral activity against HCV in Huh7 cell line at 1 uM assessed as reduction in luciferase activity. It counts as functional, Hepacivirus hominis. To be noted: Huh-7.
Test [2] concerns Hepatitis C virus. As to the kind of experiment: Antiviral activity against HCV in Huh7 cell line at 10 uM assessed as reduction in luciferase activity. To be noted: Huh-7. The class given is functional, Hepacivirus hominis.

Drawing on ChEMBL document CHEMBL1145306, “Synthesis of 2-C-hydroxymethylribofuranosylpurines as potent anti-hepatitis C virus (HCV) agents” (2006), this text covers inhibition for one compound.

Each structure is given as a SMILES string.

Take `Nc1ncnc2c1ncn2[C@@H]1O[C@H](CO)[C@@H](O)[C@]1(O)CO`: the inhibition at 1 µM in the test on Hepatitis C virus [1] was 2%. The inhibition at 10 µM in the test with Hepatitis C virus [2] came out at 50%.

What is called inhibition is the change of the read-out against control, counted positive when it falls.
